In PubChem BioAssay (NCI) one finds GI50 and TGI data, which are given here for 10 compounds.

Among the test systems are MALME-3M melanoma; HCC-2998 colon; MCF7 breast; HOP-62 NSCLC; OVCAR-3 ovarian; MOLT-4 leukemia; PC-3 prostate; BT-549 breast; HOP-92 NSCLC; UACC-257 melanoma.
Holding throughout (assay): NCI tumour cell line growth inhibition, 48 h

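Grown in 96-well plates, cells were treated for 48 hours with each compound at five concentrations. Insufficient inhibition: endpoint recorded as highest concentration tested. GI50 marks 50% less growth. At the TGI there is no net growth.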

`Cc1nc2n(c(=O)c1CCN1CCC(c3noc4cc(F)ccc34)CC1)CCCC2`: the GI50 in the experiment with MALME-3M melanoma, in the experiment with HCC-2998 colon, with MCF7 breast, in the experiment with HOP-62 NSCLC, with OVCAR-3 ovarian and in the experiment with MOLT-4 leukemia was greater than 50 µM in each case. The GI50 with PC-3 prostate, with BT-549 breast and in the experiment with HOP-92 NSCLC was greater than 50 µM each time. Also, the TGI in the experiment with MALME-3M melanoma, in the experiment with HCC-2998 colon, in the experiment with MCF7 breast, with HOP-62 NSCLC, with OVCAR-3 ovarian and in the experiment with MOLT-4 leukemia was greater than 50 µM in each case. In addition, the TGI in the experiment with PC-3 prostate, in the experiment with BT-549 breast and in the experiment on HOP-92 NSCLC was greater than 50 µM each time.
With `C[C@H]1C(Oc2ccc(O)cc2)OC2OC3(C)CCC4[C@H](C)CCC1C24OO3` (stereo partly drawn), the GI50 is 14.1 µM with MALME-3M melanoma; 12.6 µM in the experiment on MCF7 breast; 21.8 µM with HOP-62 NSCLC; 6.12 µM with OVCAR-3 ovarian; 13.1 µM with UACC-257 melanoma; 0.251 µM with PC-3 prostate. Moreover, the GI50 in the experiment with BT-549 breast is 8.34 µM; in the experiment with HOP-92 NSCLC it was 11.5 µM. Moreover, the TGI is 28.9 µM in the experiment on MALME-3M melanoma; 32.5 µM in the experiment on MCF7 breast; 51.5 µM with HOP-62 NSCLC; 32.8 µM in the experiment with OVCAR-3 ovarian; 28.4 µM in the experiment with UACC-257 melanoma; greater than 63.6 µM in the experiment on MOLT-4 leukemia. For the same compound, the TGI in the experiment with PC-3 prostate was determined as 14.8 µM; with BT-549 breast, 23.7 µM; in the experiment on HOP-92 NSCLC, 25 µM.
As for `COc1cccc2[nH]c(-c3ccccn3)nc12`, the TGI in the experiment with MALME-3M melanoma, with HCC-2998 colon, in the experiment on MCF7 breast, with HOP-62 NSCLC, in the experiment on OVCAR-3 ovarian and in the experiment on UACC-257 melanoma was greater than 100 µM each time. Besides, the TGI with PC-3 prostate, in the experiment on BT-549 breast and in the experiment on HOP-92 NSCLC was greater than 100 µM in each case.
`O=C1c2c(O)cc(O)cc2OC(c2ccc(O)cc2O)C1O` (stereo not drawn): the GI50 with MALME-3M melanoma, with HCC-2998 colon, with HOP-62 NSCLC, in the experiment with OVCAR-3 ovarian, in the experiment on UACC-257 melanoma and in the experiment with HOP-92 NSCLC was greater than 100 µM throughout. Moreover, the TGI with MALME-3M melanoma, with HCC-2998 colon, with MCF7 breast, in the experiment with HOP-62 NSCLC, in the experiment on OVCAR-3 ovarian and with UACC-257 melanoma was greater than 100 µM each time. In addition, the TGI with PC-3 prostate, in the experiment on BT-549 breast and with HOP-92 NSCLC was greater than 100 µM throughout.
In the case of `CC/C(C)=C1\OC(=O)C(C)C(O)C(Cc2cccnc2)NC(=O)C(NC(=O)c2ncccc2O)C(C)OC1=O` (stereo not drawn), the TGI in the experiment on MALME-3M melanoma, with HCC-2998 colon, with MCF7 breast, in the experiment with HOP-62 NSCLC, with OVCAR-3 ovarian and in the experiment with UACC-257 melanoma was greater than 100 µM in each case. The TGI with MOLT-4 leukemia, in the experiment on PC-3 prostate and in the experiment with BT-549 breast was greater than 100 µM each time.
Turning to `COc1ccc(-c2c(-c3cc(OC)c4c(c3)OCO4)noc2N)cc1`, the GI50 with HCC-2998 colon was 0.11 µM; in the experiment on MCF7 breast it was 0.028 µM; with HOP-62 NSCLC, 0.0345 µM; in the experiment with OVCAR-3 ovarian it was 0.0203 µM; in the experiment with MOLT-4 leukemia, 0.0723 µM; in the experiment with PC-3 prostate it was 0.0436 µM. Further, the GI50 in the experiment on BT-549 breast is 0.568 µM; with HOP-92 NSCLC, 3.72 µM. In addition, the TGI with HCC-2998 colon was found to be 18.3 µM; with MCF7 breast, 28.5 µM; in the experiment with HOP-62 NSCLC it was 37.1 µM; in the experiment on OVCAR-3 ovarian, 0.0483 µM; in the experiment on MOLT-4 leukemia, 17.5 µM; in the experiment on PC-3 prostate, 60.1 µM. Besides, the TGI with BT-549 breast was 38.7 µM; with HOP-92 NSCLC it was 35.8 µM.
Take `Cn1c(=S)c2[nH]c(SCCN3CCCC3)nc2n(C)c1=O`: the TGI in the experiment on MALME-3M melanoma, with MCF7 breast, in the experiment with HOP-62 NSCLC, in the experiment on OVCAR-3 ovarian, in the experiment on UACC-257 melanoma and in the experiment on MOLT-4 leukemia was greater than 100 µM in each case. Moreover, the TGI in the experiment on PC-3 prostate, in the experiment on BT-549 breast and with HOP-92 NSCLC was greater than 100 µM throughout.
For `CC(=O)OC1CC2C(C)(C)C(=O)C=CC2(C)C2CCC3(C)C(c4ccoc4)OC(=O)C4OC43C12C` (stereo not drawn), the TGI was 14.2 µM with HCC-2998 colon; 29.5 µM in the experiment on MCF7 breast; 87 µM in the experiment on HOP-62 NSCLC; greater than 100 µM in the experiment with OVCAR-3 ovarian; greater than 100 µM in the experiment on UACC-257 melanoma; 76.4 µM in the experiment with MOLT-4 leukemia. Moreover, the TGI with PC-3 prostate was greater than 100 µM; in the experiment with BT-549 breast, 44.4 µM; in the experiment on HOP-92 NSCLC, greater than 100 µM.
With `CCCCC#CC#Cc1cccc(=O)o1`, the GI50 in the experiment on MALME-3M melanoma is 14.1 µM; with MCF7 breast it was 26.1 µM; in the experiment with HOP-62 NSCLC, 18.1 µM; with OVCAR-3 ovarian it was 23.9 µM; in the experiment on UACC-257 melanoma it was 22.1 µM; in the experiment on MOLT-4 leukemia, 4.77 µM. The GI50 is 31 µM in the experiment with PC-3 prostate, 20.3 µM with BT-549 breast and 33.2 µM in the experiment on HOP-92 NSCLC. Besides, the TGI is 27.6 µM with MALME-3M melanoma; greater than 100 µM in the experiment with MCF7 breast; 34.4 µM in the experiment on HOP-62 NSCLC; 69.6 µM in the experiment with OVCAR-3 ovarian; 46.7 µM in the experiment with UACC-257 melanoma; 32.1 µM in the experiment with MOLT-4 leukemia. Also, the TGI in the experiment on PC-3 prostate is greater than 100 µM; in the experiment with BT-549 breast, 46.9 µM; in the experiment with HOP-92 NSCLC, greater than 100 µM.
Turning to `CCC1CCc2nc3sc(C(=O)Nc4ccccc4C)c(N)c3cc2C1` (stereo not drawn), the GI50 with HCC-2998 colon is 4.42 µM; in the experiment with MCF7 breast it was 0.287 µM; in the experiment on HOP-62 NSCLC it was 0.674 µM; in the experiment on OVCAR-3 ovarian, 0.351 µM; with UACC-257 melanoma it was 0.486 µM; in the experiment on MOLT-4 leukemia, 0.661 µM. The GI50 in the experiment on PC-3 prostate is 0.622 µM; with BT-549 breast, 0.558 µM; with HOP-92 NSCLC, 0.637 µM. Also, the TGI in the experiment on HCC-2998 colon, in the experiment on MCF7 breast, in the experiment with HOP-62 NSCLC, with OVCAR-3 ovarian, with UACC-257 melanoma and in the experiment on MOLT-4 leukemia was greater than 100 µM throughout. The TGI with PC-3 prostate, in the experiment with BT-549 breast and with HOP-92 NSCLC was greater than 100 µM in each case.
